Test results published in US20060079566A1, “PDK-1/Akt signaling inhibitors” (priority 2003, published 2006).
Where two headings read alike, the source gives them in different places.

Columns and labels:
PC-3 cells = test: Cell viability analysis (MTT) in PC-3 cells; assay type: cell-based, human; details: Homo sapiens; inducing apoptotic death in PC-3 cells / PC-3 cell viability; read-out: IC50 PC-3
Experimental: Cell Culture PC-3 (p53−/−) human androgen-nonresponsive prostate cancer cells were purchased from the American […] (Manassas, Va.). Cells were cultured in RPMI 1640 medium (Gibco, Grand Island, N.Y.) supplemented with 10% fetal bovine serum (FBS; Gibco) at 37° C. in a humidified incubator containing 5% CO2.
Cell viability analysis The effect of 4-[5-(4-methylphenyl)-3-(trifluoromethyl)-1H-pyrazol-1-yl]benzenesulfonamide and its derivatives on PC-3 cell viability was assessed by using the MTT {[3-(4,5-dimethylthiazol-2-yl)-2,5-diphenyl-2H-tetrazolium bromide]} assay in six replicates. Cells were grown in 10% FBS-supplemented RPMI 1640 medium in 96-well, flat bottomed plates for 24 h, and were exposed to various concentrations of compounds 1-36 dissolved in DMSO (final concentration ≦0.1%) in 1% serum-containing RPMI 1640 medium for different time intervals. Controls received DMSO vehicle at a concentration equal to that in drug-treated cells. The medium was removed, replaced by 200 μl of 0.5 mg/ml of MTT in 10% FBS-containing RPMI-1640 medium, and cells were incubated in the CO2 incubator at 37° C. for 2 h. Supernatants were removed from the wells, and the reduced MTT dye was solubilized in 200 μL/well DMSO. Absorbance at 570 nm was determined on a plate reader.

recombinant PDK-1 = target: T1, recombinant PDK-1 (Homo sapiens, UniProt O15530); test: PDK-1 kinase activity (Upstate kit, SGK-coupled, cell-free); assay type: biochemical
T1 construct: purchased Upstate (Lake Placid, N.Y.)
T1 sequence (O15530 1-556): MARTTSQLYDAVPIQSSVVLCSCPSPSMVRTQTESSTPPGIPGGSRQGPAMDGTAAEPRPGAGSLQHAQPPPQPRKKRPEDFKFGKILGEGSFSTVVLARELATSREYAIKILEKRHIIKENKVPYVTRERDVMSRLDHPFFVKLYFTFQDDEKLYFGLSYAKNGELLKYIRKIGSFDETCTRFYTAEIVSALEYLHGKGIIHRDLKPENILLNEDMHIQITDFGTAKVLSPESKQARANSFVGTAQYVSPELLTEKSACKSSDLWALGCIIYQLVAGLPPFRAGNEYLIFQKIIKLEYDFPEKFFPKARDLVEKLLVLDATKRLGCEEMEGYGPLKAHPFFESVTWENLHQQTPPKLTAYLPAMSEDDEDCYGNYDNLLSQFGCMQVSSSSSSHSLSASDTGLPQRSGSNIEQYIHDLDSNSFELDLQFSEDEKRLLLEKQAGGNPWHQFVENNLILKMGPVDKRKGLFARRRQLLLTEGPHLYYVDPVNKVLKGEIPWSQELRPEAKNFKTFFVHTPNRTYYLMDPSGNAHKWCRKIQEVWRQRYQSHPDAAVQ
Experimental: PDK-1 kinase activity This in vitro assay was performed using a PDK-1 kinase assay kit (Upstate, Lake Placid, N.Y.) according to the vendor's instructions. This cell-free assay is based on the ability of recombinant PDK-1, in the presence of DMSO vehicle or the test agent, to activate its downstream kinase serum- and glucocorticoid-regulated kinase (SGK.) which, in turn, phosphorylates the Akt/SGK-specific peptide substrate RPRAATF with [γ-^32]-ATP. […] The reported values represent the means of two independent determinations.

[1] = inhibiting recombinant PDK-1 kinase activity, read-out: IC50 PDK-1

Row | SMILES | IC50 (PC-3 cells) [µM] | IC50 (recombinant PDK-1; [1]) [µM] | IC50 (recombinant PDK-1) [µM]
1 | Cc1ccc(-c2cc(C(F)(F)F)nn2-c2ccc(S(N)(=O)=O)cc2)cc1 [Comparative Compound, 4-[5-(4-methylphenyl)-3-(trifluoromethyl)-1H-pyrazol-1-yl]benzenesulfonamide, reference compound] | 30 | 48 | –
2 | [N-]=[N+]=NCCCc1ccc(-c2cc(C(F)(F)F)nn2-c2ccc(S(N)(=O)=O)cc2)cc1 [Compound 40, 4-[5-(4-(3-azidopropyl)phenyl)-3-(trifluoromethyl)-1H-pyrazol-1-yl]benzenesulfonamide] | 18 | – | 34
3 | CCCCc1ccc(-c2ccc(-c3cc(C(F)(F)F)nn3-c3ccc(S(N)(=O)=O)cc3)cc2)cc1 [Compound 54, 4-[5-(4′-butyl[1,1′-biphenyl]-4-yl)-3-(trifluoromethyl)-1H-1-yl]benzenesulfonamide] | 15 | 32 | –
4 | NN=Cc1ccc(-n2nc(C(F)(F)F)cc2-c2ccc3c(ccc4ccccc43)c2)cc1 [Compound 66, 4-[5-(2-Phenanthrenyl)-3-(trifluoromethyl)-1H-pyrazol-1-yl]-benzaldehyde hydrazone] | 10 | 16 | –
5 | NS(=O)(=O)c1ccc(-n2nc(C(F)(F)F)cc2-c2ccc(-c3ccc(Cl)cc3)cc2)cc1 [Compound 46, 4-[5-(4′-chloro[1,1′-biphenyl]-4-yl)-3-(trifluoromethyl)-1H-pyrazol-1-yl]benzenesulfonamide] | 9 | – | 22
6 | NC(=O)c1ccc(-n2nc(C(F)(F)F)cc2-c2ccc3c(ccc4ccccc43)c2)cc1 [Compound 61, 4-[5-(2-Phenanthracenyl)-3-(trifluoromethyl)-1H-pyrazol-1-yl]-benzenecarboxamide] | 7 | 12 | –
7 | NS(=O)(=O)c1ccc(-n2nc(C(F)(F)F)cc2-c2c[nH]c3ccccc23)cc1 [Compound 44, 4-[5-(3-indolyl)-3(trifluoromethyl)-1H-pyrazol-1-yl]benzenesulfonamide] | 31 | – | 65
8 | NC(=O)Nc1ccc(-n2nc(C(F)(F)F)cc2-c2ccc3c(ccc4ccccc43)c2)cc1 [Compound 72, 4-[5-(2-Phenanthrenyl)-3-(trifluoromethyl)-1H-pyrazol-1-yl]phenyl urea] | 24 | 40 | –
9 | CC(C)(C)c1ccc(-c2cc(C(F)(F)F)nn2-c2ccc(S(N)(=O)=O)cc2)cc1 [Compound 42, 4-[5-(4-t-butylphenyl)-3-(trifluoromethyl)-1H-pyrazol-1-yl]benzenesulfonamide] | 18 | – | 34
10 | NS(=O)(=O)c1ccc(-n2nc(C(F)(F)F)cc2-c2ccc(-c3cc(Cl)c(Cl)cc3Cl)cc2)cc1 [Compound 49, 4-[5-(2′,4′,5′-trichloro[1,1′-biphenyl]-4-yl)-3(trifluoromethyl)-1H-pyrazol-1-yl]benzenesulfonamide] | 5 | – | 9
11 | NS(=O)(=O)c1ccc(-n2nc(C(F)(F)F)cc2-c2c3ccccc3cc3ccccc23)cc1 [Compound 58, 4-[5-(9-anthracenyl)-3-(trifluoromethyl)-1H-1-yl]benzenesulfonamide] | 7 | 12 | –
12 | N#Cc1ccc(-n2nc(C(F)(F)F)cc2-c2ccc3c(ccc4ccccc43)c2)cc1 [Compound 62, 4-[5-(2-Phenanthrenyl)-3-(trifluoromethyl)-1H-pyrazol-1-yl]-benzonitrile] | 30 | 45 | –
13 | CC(C)(C)c1ccc(-c2ccc(-c3cc(C(F)(F)F)nn3-c3ccc(S(N)(=O)=O)cc3)cc2)cc1 [Compound 55, 4-[5-(4′-tert-buty[1,1′-biphenyl]-4-yl)-3-(trifluoromethyl)-1H-1-yl]benzenesulfonamide] | 15 | 32 | –
14 | NS(=O)(=O)c1ccc(-n2nc(C(F)(F)F)cc2-c2ccc(CCBr)cc2)cc1 [Compound 37, 4-[5-(4-(2-bromoethyl)phenyl)-3-(trifluoromethyl)-1H-pyrazol-1-yl]benzenesulfonamide] | 18 | – | 42
15 | NS(=O)(=O)c1ccc(-n2nc(C(F)(F)F)cc2-c2ccc(CCCBr)cc2)cc1 [Compound 38, 4-[5-(4-(3-bromopropyl)phenyl)-3-(trifluoromethyl)-1H-pyrazol-1-yl]benzenesulfonamide] | 17 | – | 38
